{
  "source": "patent EP0412508A1",
  "about": "“Analogues of vasopressin, their preparation and pharmaceutical use” (CESKOSLOVENSKA AKADEMIE VED, priority 1989, dated 1991)",
  "key": {"Ratten [1]": {"tested_on": "Ratten", "experiment": "uterotonic (agonistic or inhibitory) activity according to Holton, modified by Munsick (printed 'Munich')", "details": "inhibitory activity expressed as pA2, rat", "source_text": "(§1) Die biologische Wirksamkeit wurde an Ratten bestimmt: Die uterotonische (agonistische oder inhibitorische) Wirksamkeit wurde nach Holton (Holton, J. Brit. J. Pharmacol. 3, 328, 1948) in der Bearbeitung nach Munich (Endocrinology 66, 451, 1960) bestimmt; die inhibitorische Aktivität wurde ausgedrückt als pA2 (Eggen et al., J. Gen. Physiol. 56, 250, 1970), die pressorische Wirksamkeit wurde an despinalisierten Rattenmännchen nach Krejci et al., (Brit. J. Pharm. Chemother. 30, 497, 1967) bestimmt, die antidiuretische nach Burn (Burn et al., Biol. Stand., Oxford Univ. Press London 1950). Als Standard wurde für den antidiuretischen Test das [1-Desamino,8-D-Arginin]-Vasopressin (dDAVP) verwendet. Eine Übersicht der biologischen Wirksamkeiten ist der Tabelle 1 zu entnehmen."}, "[2]": {"tested_on": "despinalisierten Rattenmännchen", "experiment": "pressor activity on despinalised male rats according to Krejci et al.", "format": "in vivo, Ratten", "details": "agonistic activity", "source_text": "as §1"}, "Ratten [3]": {"tested_on": "Ratten", "experiment": "antidiuretic activity according to Burn, standard dDAVP", "format": "in vivo", "details": "rat; relative to standard [1-Desamino,8-D-Arginin]-Vasopressin (dDAVP)", "source_text": "as §1"}},
  "data": [
    {"substance": "[2-p-Methyl-phenylalanin,8-D-Homoarginin]-Vasopressin", "values": [
      {"measurement": "Uterotonische Wirksamkeit, pA₂", "setting": "Ratten [1]", "result": "pA₂ = 6,85"},
      {"measurement": "Pressorische Wirksamkeit", "setting": "[2]", "result": "0,04 IU/mg"},
      {"measurement": "Antidiuretische Wirksamkeit (% dDAVP)", "setting": "Ratten [3]", "result": "< 0,1 % dDAVP"}
    ]}
  ]
}
